Measured values: patent US20120070451A1, “METHODS AND COMPOSITIONS FOR MODULATING CARDIAC CONTRACTILITY” (Consiglio Nazionale Delle Ricerche, priority 2009, published 2012)
Residues, ends and D or L forms follow the SMILES beside them. *: point of attachment. Cbz = O=C(OCc1ccccc1)*

Assays:
[1] = test system: Cavα1; test: Western blot of YFP-Cavα1 in transfected COS-7 cells treated with Akt inhibitor and degradation-system inhibitors; assay type: cell-based
Description: FIG. 3. Akt mediates regulation of Cavα1 protein density at the plasma membrane. (A) RT-PCR analysis of Cavα1 mRNA expression from WT and KO ventricular extracts. GADPH serves as loading control. (B) Western blot analysis of whole lysate, membrane, and microsomal fractions from WT and KO ventricular extracts. (C) YFP-Cavα1 transfected COS-7 cells alone or in combination with Cavβ2-expression vector were serum-starved and treated with Akt inhibitor and 1 μM bafilomycin-A1, 25 μM MG132, or 25 μM calpeptin. 6 h post drug administration, cell lysates were prepared and subjected to Western blot analysis for YFP. GAPDH served as a loading control. (D-E) Cavα1 protein levels in KO cardiomyocytes infected with empty (mock) or active E40K-Akt (AdAkt) expressing adenoviral vector (D) and in whole lysates of WT and E40K-Akt (Tg Akt) hearts (E). Representative experiments are shown (n=4).
However, since the amount of Cavα1 was reduced in both microsomal and membrane fractions from KO extracts compared to WT (FIG. 3B), we hypothesized that the reduced Cavα1 level observed in KO mice was due to enhanced protein degradation in addition to impaired protein translocation to the plasma membrane. To assess the pathway involved in the Akt-dependent Cavα1 protein degradation, three sets of specific cell degradation system inhibitors were examined for their ability to prevent the decrease in Cavα1 protein elicited by Akt inhibition. […] Similar results were obtained by inhibiting calpain, the intracellular, Ca^2+-dependent cysteine protease known to be involved in membrane protein degradation (Belles et al., 1988; Romanin et al., 1991).
Cell transfection was performed in serum-starved medium using LipoFectamine2000 (Invitrogen) according to the manufacturer's instructions. 5 μM Akt-XI inhibitor (Calbiochem), insulin (Sigma), 1 μM bafilomycin-A 1 (Sigma), 25 μM MG132 (Calbiochem), and 25 μM Calpeptin (Calbiochem) were used as described. […]
Proteins expression was evaluated in total lysates or cell fractions by Western blot analysis according to standard procedures. […]

[2] = test system: Cavα1 C-terminal domain; test: GST pull-down in vitro binding assay; details: for Interaction with Cavα1 C-terminal domain: 35S-methionine-labeled C-Cavα1 (aa 1477-2169)
Excerpt: FIG. 7. Rapid-protein-degradation PEST sequences determine Cavα1 protein instability. (A) Schematic representation of Cavα1 mapping the α1-interacting domain (AID) and PEST sequences in the I-II and II-III cytosolic loops. Deleted PEST sequences (P, H) are highlighted in red. (B) Western blot and immunofluorescence analyses showing relative levels of WT and PEST deleted mutants of YFP-Cavα1 (n=3). Bar represents 5 μm. (C) Wild-type Cavα1 subunit (alone or cotransfected with Cavβ2SE) and its in-frame ΔPEST mutants (Cavα1-ΔP and Cavα1-ΔH) half-lives were determined in COST cells. After overnight starvation, transfected cells were pulse-chased and analyzed along a time course (*P<0.001 compared to Cavα1, ANOVA; n=3). (D) Western blot and immunofluorescence analyses showing relative levels of WT GFP and N-terminal fusion PEST mutants (n=3). Bar represents 20 μm. (E) The Cavα1 C-terminus interacts with the Akt-phosphorylated-GST-Cavβ2 coiled coil region. Bacterially expressed GST or GST-C-Cavβ2 (Cavβ2: aa 480-655) fusion protein and glutathione sepharose beads were incubated with equal amounts of in vitro translated [^35S] methionine-labeled C-Cavα1 (Cavα1: aa 1477-2169). […] Bound proteins were resolved by SDS-PAGE (4-12%). 10% of the input protein in each binding reaction is shown. Coomassie staining of SDS-PAGE is shown in the bottom panel. (F) Ca^2+ currents recorded in tsA-201 cells cotransfected with Cavβ2-WT and either Cavα1-WT or Cavα1-ΔH and cultivated for 36 h in the presence or absence of fetal bovine serum (10%). Current densities (pA/pF) are normalized to the control condition. n>35 at each condition, (*P<0.05 compared to Cavα1, ANOVA). […]
Affinity-purified GST-fusion proteins were generated using a pGEX system (Amersham) and phosphorylated as described below. […] Bound proteins were eluted in SDS sample buffer, subjected to SDS-PAGE, and detected by autoradiography. […]

[3] = test system: Cavα1 currents; test: Whole-cell patch clamp Ca2+ current (ICa,L) in cotransfected tsA-201 cells with or without serum; assay type: cell-based; details: cotransfection with Cavα1; 36 h
Description: FIG. 6. Akt phosphorylation of Cavβ2 preserves Cavα1 currents. Ca^2+ currents recorded in cotransfected tsA-201 cells with YFP-Cavα1 and either Cavβ2-WT, Cavβ2-SE, or Cavβ2-SA mutant, cultivated for 36 h in the presence or absence of fetal bovine serum (10%). Currents were recorded 1-2 minutes after the whole-cell configuration was achieved (i.e. after stabilization of the current) and were elicited by a 0 mV depolarization of 200 ms duration applied from a holding potential of −80 mV. Currents are normalized to cell capacitance (Current density, pA/pF). Representative current traces are shown. n>35 at each condition, (*P<0.05 compared to YFP-Cavα1, ANOVA).
FIG. 7. […] (C) Wild-type Cavα1 subunit (alone or cotransfected with Cavβ2SE) and its in-frame ΔPEST mutants (Cavα1-ΔP and Cavα1-ΔH) half-lives were determined in COST cells. After overnight starvation, transfected cells were pulse-chased and analyzed along a time course (*P<0.001 compared to Cavα1, ANOVA; n=3). […] (F) Ca^2+ currents recorded in tsA-201 cells cotransfected with Cavβ2-WT and either Cavα1-WT or Cavα1-ΔH and cultivated for 36 h in the presence or absence of fetal bovine serum (10%). […]
Macroscopic Ice, was recorded at room temperature (˜22° C.) using the whole-cell patch clamp technique in native cells as previously described (Aimond et al., 2005; Maier et al., 2003). […]

[4] = Cavα1 and Cavβ2 cotransfected cells, 1 μM bafilomycin-A1, 25 μM MG132 or 25 μM calpeptin, 6 h

## CC(C)C[C@@H](C=O)NC(=O)[C@H](CC(C)C)NC(=O)[C@H](CC(C)C)NC(=O)OCc1ccccc1 [MG132] (Cbz-Leu-Leu-Leu-aldehyde)
[1]; [4]
  Cavα1 protein decrease induced by Akt inhibition: failed to protect Cavα1 from protein degradation

## CO/C1=C\C(C)=C\[C@@H](C)[C@@H](O)[C@@H](C)C/C(C)=C/C=C/[C@H](OC)[C@@H]([C@@H](C)[C@@H](O)[C@H](C)[C@@]2(O)C[C@@H](O)[C@H](C)[C@@H](C(C)C)O2)OC1=O [bafilomycin-A1]
[1]; [4]
  Cavα1 protein decrease induced by Akt inhibition: prevented the decrease in Cavα1 protein induced by Akt inhibition
[1]; absence of Cavβ2 cotransfection
  Cavα1 protein decrease induced by Akt inhibition: protection effect was abolished

## Akt-phosphorylated Cavβ2 C-terminal coiled coil region: bacterially expressed GST-C-Cavβ2 (Cavβ2: aa 480-655) fusion protein phosphorylated by recombinant Akt
[2]
  Interaction with Cavα1 C-terminal domain: direct interaction took place
[2]; listed as Akt-phosphorylated GST-C-Cavβ2
  Interaction with Cavα1 C-terminal domain: Binding occurred
[2]; data not shown
  Interaction with other Cavα1 cytosolic domains: No interactions were found

## Cavβ2-WT: wild-type Ca2+ beta2 channel accessory subunit
[3]
  ICa,L in serum-free medium compared to serum-containing medium: significant depressed ICa,L
